Data: US20120040976A1, “SMALL MOLECULE IMMUNOMODULATORS FOR ALZHEIMER'S DISEASE” (HUMAN BIOMOLECULAR RESEARCH INSTITUTE, priority 2008, published 2012)
Converted amounts (≈) assume the structure as drawn.

Legend:
[1] = Anti-oxidant activity
[2] = Average solubility; assay type: physicochemical
[3] = Metabolic stability in human liver microsomes; assay type: in vitro ADME; details: read-out: Half life, t1/2 HLM
[4] = Metabolic stability in human S9 fraction; assay type: in vitro ADME; details: read-out: Half life, t1/2 S9
[5] = Chemical stability (H2O, pH 7.4); assay type: physicochemical
[6] = system: MGAT3; test: MGAT3 transcription ratio, AD patient / control PBMCs (qPCR); assay type: cell-based, human; design: key: Dash (−) indicates minimal effect; (+) indicates a ratio of 1.0-1.5; (++) indicates a ratio of 1.5-2.0; (+++ to ++++) indicates a ratio of 2.0 and above; (+++ to ++++) indicates a ratio of 2.0 and above; details: Aβ stimulation
Description: (§1) qPCR reactions of cultured monocyte cDNAs. One μL total cellular cDNA per reaction is used in triplicate reactions for each test gene, and for each culture treatment. SYBR-Green reactions were run on a Continuous Fluorescence real-time thermocycler and analyzed. Cycle threshold (Ct) values are recorded for each replicate reaction, and are then averaged and normalized against mean Ct values from one or more control genes. Fold-expression differences relative to untreated cells are determined using the 2^−ΔΔCt method as previously described. Data from the curcumin concentration range are plotted in order to determine EC50 values (concentrations producing one-half maximal stimulant activity), which are used for comparisons of potency between different compounds. Data are also evaluated for each gene with regard to sensitivity, maximally effective concentration of curcuminoid, response to Aβ, and overall magnitude of fold-expression changes.
(§2) MGAT3 and/or TLR transcription were tested by qPCR in human monocyte cells treated with curcuminoids and compared the results to those treated with vehicle (Table 7). As discussed above, activation or up-regulation of macrophage MGAT3 or TLR's results in many functional outcomes, including the enhancement of […] and removal of Aβ, increased apoptosis, secretion of inflammatory cytokines, and other anti-AD antimicrobial activities. […] Thus, the ratio of MGAT3 or TLR transcription upon Aβ stimulation of human monocytes versus vehicle treatment provides an indicator and sensitive method to test the in vitro efficacy of drug candidates. […] The relative biological activity of the curcumin analogs in AD patient and control cells was ascertained in the in vitro Aβ assay described above (see Example 2).

[7] = system: TLR 2; test: TLR 2 transcription ratio, AD patient / control PBMCs (qPCR); assay type: cell-based, human; details: Aβ stimulation
Description: as §1, §2

[8] = system: TLR 3; test: TLR 3 transcription ratio, AD patient / control PBMCs (qPCR); assay type: cell-based, human; details: Aβ stimulation
Description: as §1, §2

[9] = system: TLR 4; test: TLR 4 transcription ratio, AD patient / control PBMCs (qPCR); assay type: cell-based, human; details: Aβ stimulation
Description: as §1, §2

[10] = water (aqueous solution), pH 7.4, read-out: Chemical stability t1/2 pH 7.4 (converted)
[11] = water, H2O, read-out: Chemical stability t1/2 H2O (converted)

SMILES	IC50 [1]	half-life ([3]; human)	half-life [4]	Relative ratio of MGAT3 transcription in AD patient / control PBMC's [6]	also measured
O=C(/C=C(\O)CCc1ccc(O)cc1)CCc1ccc(O)cc1 [Compound 5, 5-Hydroxy-1,7-bis(4-hydroxyphenyl)hept-4-en-3-one]	> 250 µM				Avg. Solubility [2]: insol
O=C1/C(=C(O)/C=C/c2ccc(O)cc2)CCC/C1=C\c1ccc(O)cc1 [Compound 6, 2-(4-Hydroxybenzylidene)-6-(3-(4-hydroxyphenyl)acryloyl)cyclohexanone]	> 250 µM	60.6 min	35.2 min	+++ ((+++ to ++++) indicates a ratio of 2.0 and above)	half-life [5, 10]: 436 min; half-life [5, 11]: 244 min
CC/C(C(=O)/C=C/c1ccc(N(C)C)cc1)=C(O)\C=C\c1ccc(N(C)C)cc1 [Compound 9, 1,7-bis(4-Dimethylaminophenyl)-4-ethyl-hepta-1,6-diene-3,5-dione]	55.3 µM				
COc1ccc(F)cc1/C=C/C(O)=C1\CCC/C(=C\c2cc(F)ccc2OC)C1=O [Compound 11]	> 250 µM			+ ((+) indicates a ratio of 1.0-1.5)	
CC/C(C(=O)/C=C/c1ccc(N(C)C)cc1OC)=C(O)\C=C\c1ccc(N(C)C)cc1OC [Compound 13, 1,7-Bis(4-(dimethylamino)-2-methoxyphenyl)-4-ethyl-hepta-1,6-diene-3,5-dione]	67.4 µM				
O=C1C(=Cc2ccc(O)cc2)COCC1=Cc1ccc(O)cc1 [Compound 15, 3,5-bis(4-Hydroxybenzylidene)dihydro-2H-pyran-4(3H)-one]	> 250 µM				
COc1ccc(/C=C/C(=O)/C=C(O)/C=C/c2ccc(OC)cc2)cc1 [Compound 16, 5-Hydroxy-1,7-bis-(4-methoxy-phenyl)-hepta-1,4,6-trien-3-one]		9 min	10.9 min	−	
CC(=O)Oc1ccc(/C=C/C(=O)/C=C(O)/C=C/c2ccc(OC(C)=O)cc2)cc1 [Compound 17, Acetic acid 4-[7-(4-acetoxy-phenyl)-5-hydroxy-3-oxo-hepta-1,4,6-trienyl]-phenyl ester]				−	
CC(C)(C)C(=O)Oc1ccc(/C=C/C(=O)/C=C(O)/C=C/c2ccc(OC(=O)C(C)(C)C)cc2)cc1 [Compound 18, 2,2-Dimethyl-propionic acid 4-{7-[4-(2,2-dimethyl-propionyloxy)-phenyl]-3,5-dioxo-hepta-1,6-dienyl}-phenyl ester]				−	
O=C(/C=C(O)/C=C/c1cccc(O)c1)/C=C/c1cccc(O)c1 [Compound 19, 5-Hydroxy-1,7-bis-(3-hydroxyphenyl)-hepta-1,4,6-trien-3-one]		13.3 min	6.6 min	+ ((+) indicates a ratio of 1.0-1.5)	half-life [5, 10]: 66.2 min; half-life [5, 11]: 22.8 min
CN(C)c1ccc(/C=C/C(=O)/C=C(O)/C=C/c2ccc(N(C)C)cc2)cc1 [Compound 20, 1,7-bis-(4-Dimethylaminophenyl)-5-hydroxy-hepta-1,4,6-trien-3-one]		41.5 min	22.7 min	++++ ((+++ to ++++) indicates a ratio of 2.0 and above)	Chemical stability H2O (stable/unstable) ([5]; H2O): stable (stability half-lives greater than 5 hours); Chemical stability pH 7.4 (stable/unstable) ([5]; pH 7.4): stable (stability half-lives greater than 5 hours); solubility [2]: 0.23 µg/mL (≈ 0.635 µM)
COc1ccc(/C=C/C(=O)/C=C(O)/C=C/c2ccc(OC)c(O)c2)cc1O [Compound 21, 5-Hydroxy-1,7-bis-(3-hydroxy-4-methoxyphenyl)-hepta-1,4,6-trien-3-one]		5 min	6.6 min	+ ((+) indicates a ratio of 1.0-1.5)	
COc1cc(O)ccc1/C=C/C(=O)/C=C(O)/C=C/c1ccc(O)cc1OC [Compound 22, 5-Hydroxy-1,7-bis-(4-hydroxy-2-methoxyphenyl)-hepta-1,4,6-trien-3-one]		31.5 min	2.4 min	++ ((++) indicates a ratio of 1.5-2.0)	
O=C(/C=C(O)/C=C/c1ccc(O)c(Cl)c1)/C=C/c1ccc(O)c(Cl)c1 [Compound 24, 1,7-bis-(3-Chloro-4-hydroxyphenyl)-5-Hydroxy-hepta-1,4,6-trien-3-one]				−	
COc1ccccc1/C=C/C(=O)/C=C(O)/C=C/c1ccccc1OC [Compound 25, 5-Hydroxy-1,7-bis-(2-methoxyphenyl)-hepta-1,4,6-trien-3-one]		72.8 min	10.9 min	++++ ((+++ to ++++) indicates a ratio of 2.0 and above)	Relative ratio of TLR 2 transcription in AD patient / control PBMC's [7]: TLR 2 +++ ((+++ to ++++) indicates a ratio of 2.0 and above); Relative ratio of TLR 3 transcription in AD patient / control PBMC's [8]: TLR 3 ++ ((++) indicates a ratio of 1.5-2.0); Relative ratio of TLR 4 transcription in AD patient / control PBMC's [9]: TLR 4 + ((+) indicates a ratio of 1.0-1.5)
O=C(/C=C(O)/C=C/c1ccccc1)/C=C/c1ccccc1 [Compound 27, 5-Hydroxy-1,7-diphenylhepta-1,4,6-trien-3-one]				+ ((+) indicates a ratio of 1.0-1.5)	
Cc1ccc(/C=C/C(=O)/C=C(O)/C=C/c2ccc(C)cc2)cc1 [Compound 28, 5-Hydroxy-1,7-ditolylhepta-1,4,6-trien-3-one]				++ ((++) indicates a ratio of 1.5-2.0)	
CSc1ccc(/C=C/C(=O)/C=C(O)/C=C/c2ccc(SC)cc2)cc1 [Compound 29, 1,7-bis(4-Methylthiophenyl)-5-hydroxyhepta-1,4,6-trien-3-one]		97.1 min	75.4 min	++++ ((+++ to ++++) indicates a ratio of 2.0 and above)	
COc1ccc(F)cc1/C=C/C(O)=C/C(=O)/C=C/c1ccc(N(C)C)cc1 [Compound 31]				++ ((++) indicates a ratio of 1.5-2.0)	Relative ratio of TLR 2 transcription in AD patient / control PBMC's [7]: TLR 2 ++ ((++) indicates a ratio of 1.5-2.0); Relative ratio of TLR 3 transcription in AD patient / control PBMC's [8]: TLR 3 ++ ((++) indicates a ratio of 1.5-2.0); Relative ratio of TLR 4 transcription in AD patient / control PBMC's [9]: TLR 4 ++ ((++) indicates a ratio of 1.5-2.0)
CC(C)C(N)C(=O)Oc1ccc(/C=C/C(=O)C2CCC/C(=C\c3ccc(OC(=O)C(N)C(C)C)cc3)C2=O)cc1 (stereo not drawn) [Compound 37]	> 250 µM		33.2 min	++ ((++) indicates a ratio of 1.5-2.0)	half-life ([3]; value given in h): > 60 min; half-life [5, 10]: < 16 min; half-life [5, 11]: 95.9 min
NCCCCC(N)C(=O)Oc1ccc(/C=C/C(=O)C2CCC/C(=C\c3ccc(OC(=O)C(N)CCCCN)cc3)C2=O)cc1 (stereo not drawn) [Compound 38]	> 250 µM		33.6 min	+ ((+) indicates a ratio of 1.0-1.5)	half-life ([3]; value given in h): > 60 min; Chemical stability H2O (stable/unstable) ([5]; H2O): unstable (stability half-lives less than 5 minutes); Chemical stability pH 7.4 (stable/unstable) ([5]; pH 7.4): unstable (stability half-lives less than 5 minutes)
